In patent US20230081426A1, “COMPOUNDS AND METHODS FOR KRAS MODULATION AND INDICATIONS THEREFOR” (Plexxikon Inc., priority 2020, published 2023):

Legend:
[1] = target: T1, G12D-mutant human KRAS (amino acid residues 1-188) (Homo sapiens, UniProt P01116, G12D); experiment: KRAS Binding Disruption Assay (AlphaScreen; biotinylated KRpep-2d analogue or RAF1-RBD), G12D; settings: KRAS G12D; geometric mean; read-out: KRAS GMean IC50 (uM) MUTATION: G12D
T1 construct: G12D or G12C-mutant human KRAS (amino acid residues 1-188) with FLAG tag; made in house; host or cells: E. coli
T1 sequence (P01116 1-188 isoform P01116-2 G12D): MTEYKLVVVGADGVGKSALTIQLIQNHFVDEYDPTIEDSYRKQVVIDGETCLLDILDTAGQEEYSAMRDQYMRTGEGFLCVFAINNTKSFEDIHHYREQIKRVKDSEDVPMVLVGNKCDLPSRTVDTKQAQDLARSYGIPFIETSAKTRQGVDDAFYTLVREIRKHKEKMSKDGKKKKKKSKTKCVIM
Outline: (§1)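 Compounds are titrated against 5-20 nM mutant KRAS and 5-20 nM of either a biotinylated KRpep-2d analogue or RAF1-RBD, incubated 1 h at 25° C. Disruption is detected as reduced Alpha signal after 1 h with donor and acceptor beads at 10 μg/mL.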

[2] = target: T2, G12C-mutant human KRAS (amino acid residues 1-188) (Homo sapiens, UniProt P01116, G12C); experiment: KRAS Binding Disruption Assay (AlphaScreen; biotinylated KRpep-2d analogue or RAF1-RBD), G12C; settings: geometric mean, read-out: KRAS GMean IC50 (uM) MUTATION: G12C
T2 construct: G12D or G12C-mutant human KRAS (amino acid residues 1-188) with FLAG tag; made in house; host or cells: E. coli
T2 sequence (P01116 1-188 isoform P01116-2 G12C): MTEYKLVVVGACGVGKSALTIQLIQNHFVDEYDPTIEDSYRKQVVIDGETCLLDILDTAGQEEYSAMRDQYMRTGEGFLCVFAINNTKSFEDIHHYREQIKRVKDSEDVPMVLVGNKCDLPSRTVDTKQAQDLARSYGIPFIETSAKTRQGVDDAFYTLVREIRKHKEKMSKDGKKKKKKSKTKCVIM
Outline: as §1

With `CN1CCC[C@H]1COc1nc(N2C[C@H]3CC[C@@H](C2)N3)c2ccc(-c3nccc4cccc(C(F)(F)F)c34)c(F)c2n1` [P-0762, 4-((1R,5S)-3,8-diazabicyclo[3.2.1]octan-3-yl)-8-fluoro-2-(((S)-1-methylpyrrolidin-2-yl)methoxy)-7-(8-(trifluoromethyl)isoquinolin-1-yl)quinazoline] as the compound, how does the IC50 [1] read?
The IC50 was 10 to 100 µM.

What about the IC50 [2] of the same compound?
The IC50 was 10 to 100 µM.

`COC(=O)C(C)(C)COc1nc(N2C[C@H]3CC[C@@H](C2)N3)c2ccc(-c3cc(O)cc4ccccc34)c(F)c2n1` [P-0648, methyl 3-((4-((1R,5S)-3,8-diazabicyclo[3.2.1]octan-3-yl)-8-fluoro-7-(3-hydroxynaphthalen-1-yl)quinazolin-2-yl)oxy)-2,2-dimethylpropanoate] was tested. Which IC50 [1] did it give?
The IC50 was 0.0001 to 10 µM.

And the IC50 [2]?
The IC50 was 10 to 100 µM.

For `CC(CCBr)Oc1nc(N2C[C@H]3CC[C@@H](C2)N3)c2ccc(-c3cc(O)cc4ccccc34)c(F)c2n1` (stereo partly drawn) [P-0755, 4-(4-((1R,5S)-3,8-diazabicyclo[3.2.1]octan-3-yl)-2-((4-bromobutan-2-yl)oxy)-8-fluoroquinazolin-7-yl)naphthalen-2-ol], which IC50 [1] is on record?
Its IC50 is 0.0001 to 10 µM.

What about the IC50 [2] of the same compound?
Its IC50 is 10 to 100 µM.

What does the source list for `NS(=O)(=O)N1[C@@H]2CC[C@H]1CN(c1nc(OCC34CCCN3CCC4)nc3c(F)c(-c4cc(O)cc5ccccc45)ccc13)C2` [P-0662, (1R,5S)-3-(8-fluoro-7-(3-hydroxynaphthalen-1-yl)-2-((tetrahydro-1H-pyrrolizin-7a(5H)-yl)methoxy)quinazolin-4-yl)-3,8-diazabicyclo[3.2.1]octane-8-sulfonamide]?
IC50 [1]: 0.0001 to 10 µM; IC50 [2]: 0.0001 to 10 µM

What does the source list for `Fc1cc(F)c2c(-c3c(F)cc4c(N5C[C@H]6CC[C@@H](C5)N6)nc(OCC56CCCN5CCC6)nc4c3F)c[nH]c2c1` [P-0806, 4-((1R,5S)-3,8-diazabicyclo[3.2.1]octan-3-yl)-7-(4,6-difluoro-1H-indol-3-yl)-6,8-difluoro-2-((tetrahydro-1H-pyrrolizin-7a(5H)-yl)methoxy)quinazoline]?
IC50 [1]: 0.0001 to 10 µM; IC50 [2]: 0.0001 to 10 µM

Which IC50 [1] does the source give for `Fc1cc2c(N3C[C@H]4CC[C@@H](C3)N4)nc(OCC34CCCN3CCC4)nc2c(F)c1-c1c[nH]c2ccc(Cl)c(Cl)c12` [P-0774, 4-((1R,5S)-3,8-diazabicyclo[3.2.1]octan-3-yl)-7-(4,5-dichloro-1H-indol-3-yl)-6,8-difluoro-2-((tetrahydro-1H-pyrrolizin-7a(5H)-yl)methoxy)quinazoline] here?
The IC50 was 0.0001 to 10 µM.

What about the IC50 [2] of the same compound?
The IC50 was 0.0001 to 10 µM.

How did the IC50 [1] turn out when `Cc1cc(COc2nc(N3C[C@H]4CC[C@@H](C3)N4)c3ccc(-c4cc(O)cc5ccccc45)c(F)c3n2)no1` [P-0777, 4-(4-((1R,5S)-3,8-diazabicyclo[3.2.1]octan-3-yl)-8-fluoro-2-((5-methylisoxazol-3-yl)methoxy)quinazolin-7-yl)naphthalen-2-ol] was run?
Its IC50 is 0.0001 to 10 µM.

What about the IC50 [2] of the same compound?
The IC50 was 10 to 100 µM.

For `Cn1cncc1COc1nc(N2C[C@H]3CC[C@@H](C2)N3)c2ccc(-c3cc(O)cc4ccccc34)c(F)c2n1` [P-0786, 4-(4-((1R,5S)-3,8-diazabicyclo[3.2.1]octan-3-yl)-8-fluoro-2-((1-methyl-1H-imidazol-5-yl)methoxy)quinazolin-7-yl)naphthalen-2-ol], which IC50 [1] is on record?
The IC50 was 0.0001 to 10 µM.

What about the IC50 [2] of the same compound?
Its IC50 is 0.0001 to 10 µM.

Which results are given for `CCN(CC)C1CN(c2nc(N3C[C@H]4CC[C@@H](C3)N4)c3ccc(-c4cc(O)cc5ccccc45)c(F)c3n2)C1` [P-0637, 4-(4-((1R,5S)-3,8-diazabicyclo[3.2.1]octan-3-yl)-2-(3-(diethylamino)azetidin-1-yl)-8-fluoroquinazolin-7-yl)naphthalen-2-ol]?
IC50 [1]: 0.0001 to 10 µM; IC50 [2]: 10 to 100 µM

What does the source list for `Oc1cc(-c2ccc3c(N4C[C@H]5CC[C@@H](C4)N5)nc(N4CC(O)(C(F)(F)F)C4)nc3c2F)c2ccccc2c1` [P-0706, 1-(4-((1R,5S)-3,8-diazabicyclo[3.2.1]octan-3-yl)-8-fluoro-7-(3-hydroxynaphthalen-1-yl)quinazolin-2-yl)-3-(trifluoromethyl)azetidin-3-ol]?
IC50 [1]: 0.0001 to 10 µM; IC50 [2]: 100 to 1000 µM

How did the IC50 [1] turn out when `C=Cc1cc2c(N3C[C@H]4CC[C@@H](C3)N4)nc(OC[C@@H]3CCCN3C)nc2c(F)c1-c1cc(O)cc2ccccc12` [P-0036, 4-[4-(3,8-Diazabicyclo[3.2.1]octan-3-yl)-8-fluoro-2-[[(2S)-1-methylpyrrolidin-2-yl]methoxy]-6-vinyl-quinazolin-7-yl]naphthalen-2-ol] was run?
The IC50 was 0.0001 to 10 µM.

What about the IC50 [2] of the same compound?
Its IC50 is 0.0001 to 10 µM.

`Oc1cc(-c2ccc3c(N4C[C@H]5CC[C@@H](C4)N5)nc(OCCN4CCOCC4)nc3c2F)c2ccccc2c1` [P-0695, 4-(4-((1R,5S)-3,8-diazabicyclo[3.2.1]octan-3-yl)-8-fluoro-2-(2-morpholinoethoxy)quinazolin-7-yl)naphthalen-2-ol] was tested. Which IC50 [1] did it give?
The IC50 was 0.0001 to 10 µM.

What about the IC50 [2] of the same compound?
The IC50 was 10 to 100 µM.

With `OCCCOc1nc(N2C[C@H]3CC[C@@H](C2)N3)c2ccc(-c3cc(O)cc4ccccc34)c(F)c2n1` [P-0652, 4-(4-((1R,5S)-3,8-diazabicyclo[3.2.1]octan-3-yl)-8-fluoro-2-(3-hydroxypropoxy)quinazolin-7-yl)naphthalen-2-ol] as the compound, how does the IC50 [1] read?
Its IC50 is 0.0001 to 10 µM.

And the IC50 [2]?
Its IC50 is 10 to 100 µM.

Which results are given for `OC/C=C/c1nc(N2C[C@H]3CC[C@@H](C2)N3)c2ccc(-c3cc(O)cc4ccccc34)c(F)c2n1` [P-0812, 4-(4-((1R,5S)-3,8-diazabicyclo[3.2.1]octan-3-yl)-8-fluoro-2-((E)-3-hydroxyprop-1-en-1-yl)quinazolin-7-yl)naphthalen-2-ol]?
IC50 [1]: 0.0001 to 10 µM; IC50 [2]: 10 to 100 µM

How did the IC50 [1] turn out when `CN1CCC[C@H]1COc1nc(N2CC3CCCC(C2)N3)c2cc(Cl)c(-c3cc(O)cc4ccccc34)c(F)c2n1` [P-0039, 4-(4-(3,9-diazabicyclo[3.3.1]nonan-3-yl)-6-chloro-8-fluoro-2-(((S)-1-methylpyrrolidin-2-yl)methoxy)quinazolin-7-yl)naphthalen-2-ol] was run?
The IC50 was 0.0001 to 10 µM.

What about the IC50 [2] of the same compound?
Its IC50 is 0.0001 to 10 µM.

Which results are given for `CN1CCC[C@H]1COc1nc(N2C[C@H]3CC[C@@H](C2)N3)c2cc(F)c(-c3c[nH]c4cc(F)ccc34)c(F)c2n1` [P-0759, 4-((1R,5S)-3,8-diazabicyclo[3.2.1]octan-3-yl)-6,8-difluoro-7-(6-fluoro-1H-indol-3-yl)-2-(((S)-1-methylpyrrolidin-2-yl)methoxy)quinazoline]?
IC50 [1]: 0.0001 to 10 µM; IC50 [2]: 10 to 100 µM

`CN1C(=O)CCC1COc1nc(N2C[C@H]3CC[C@@H](C2)N3)c2ccc(-c3cc(O)cc4ccccc34)c(F)c2n1` (stereo partly drawn) [P-0742, 5-(((4-((1R,5S)-3,8-diazabicyclo[3.2.1]octan-3-yl)-8-fluoro-7-(3-hydroxynaphthalen-1-yl)quinazolin-2-yl)oxy)methyl)-1-methylpyrrolidin-2-one] was tested. Which IC50 [1] did it give?
The IC50 was 0.0001 to 10 µM.

What about the IC50 [2] of the same compound?
The IC50 was 10 to 100 µM.

`Fc1c(-c2c[nH]c3cccc(C(F)(F)F)c23)ccc2c(N3C[C@H]4CC[C@@H](C3)N4)nc(OCC34CCCN3CCC4)nc12` [P-0723, 4-((1R,5S)-3,8-diazabicyclo[3.2.1]octan-3-yl)-8-fluoro-2-((tetrahydro-1H-pyrrolizin-7a(5H)-yl)methoxy)-7-(4-(trifluoromethyl)-1H-indol-3-yl)quinazoline] was tested. Which IC50 [1] did it give?
The IC50 was 0.0001 to 10 µM.

And the IC50 [2]?
The IC50 was 0.0001 to 10 µM.

Which results are given for `CN1CC2(C1)CN(c1nc(N3C[C@H]4CC[C@@H](C3)N4)c3ccc(-c4cc(O)cc5ccccc45)c(F)c3n1)C2` [P-0643, 4-(4-((1R,5S)-3,8-diazabicyclo[3.2.1]octan-3-yl)-8-fluoro-2-(6-methyl-2,6-diazaspiro[3.3]heptan-2-yl)quinazolin-7-yl)naphthalen-2-ol]?
IC50 [1]: 0.0001 to 10 µM; IC50 [2]: 10 to 100 µM

Which IC50 [1] does the source give for `Oc1cc(-c2ccc3c(N4C[C@H]5CC[C@@H](C4)N5)nc(OCc4ncco4)nc3c2F)c2ccccc2c1` [P-0804, 4-(4-((1R,5S)-3,8-diazabicyclo[3.2.1]octan-3-yl)-8-fluoro-2-(oxazol-2-ylmethoxy)quinazolin-7-yl)naphthalen-2-ol] here?
The IC50 was 0.0001 to 10 µM.

And the IC50 [2]?
The IC50 was 10 to 100 µM.

`Oc1cc(-c2ccc3c(N4C[C@H]5CC[C@@H](C4)N5)nc(OCC4CCCC4(F)F)nc3c2F)c2ccccc2c1` (stereo partly drawn) [P-0739, 4-(4-((1R,5S)-3,8-diazabicyclo[3.2.1]octan-3-yl)-2-((2,2-difluorocyclopentyl)methoxy)-8-fluoroquinazolin-7-yl)naphthalen-2-ol] was tested. Which IC50 [1] did it give?
The IC50 was 0.0001 to 10 µM.

What about the IC50 [2] of the same compound?
The IC50 was 10 to 100 µM.

Which IC50 [1] does the source give for `Oc1cc(-c2ccc3c(N4C[C@H]5CC[C@@H](C4)N5)nc(OCCN4CCC(F)(F)C4)nc3c2F)c2ccccc2c1` [P-0649, 4-(4-((1R,5S)-3,8-diazabicyclo[3.2.1]octan-3-yl)-2-(2-(3,3-difluoropyrrolidin-1-yl)ethoxy)-8-fluoroquinazolin-7-yl)naphthalen-2-ol] here?
Its IC50 is 0.0001 to 10 µM.

And the IC50 [2]?
The IC50 was 0.0001 to 10 µM.

With `NC1CN(c2nc(N3C[C@H]4CC[C@@H](C3)N4)c3ccc(-c4cc(O)cc5ccccc45)c(F)c3n2)C1` [P-0793, 4-(2-(3-aminoazetidin-1-yl)-4-((1R,5S)-3,8-diazabicyclo[3.2.1]octan-3-yl)-8-fluoroquinazolin-7-yl)naphthalen-2-ol] as the compound, how does the IC50 [1] read?
The IC50 was 0.0001 to 10 µM.

And the IC50 [2]?
The IC50 was 10 to 100 µM.

What does the source list for `Oc1cc(-c2ccc3c(N4C[C@H]5CC[C@@H](C4)N5)nc(OCC4(O)CC4)nc3c2F)c2ccccc2c1` [P-0734, 4-(4-((1R,5S)-3,8-diazabicyclo[3.2.1]octan-3-yl)-8-fluoro-2-((1-hydroxycyclopropyl)methoxy)quinazo-lin-7-yl)naphthalen-2-ol]?
IC50 [1]: 0.0001 to 10 µM; IC50 [2]: 10 to 100 µM

For `Fc1c(-c2c[nH]c3cccc(C4CC4)c23)ccc2c(N3C[C@H]4CC[C@@H](C3)N4)nc(OCC34CCCN3CCC4)nc12` [P-0697, 4-((1R,5S)-3,8-diazabicyclo[3.2.1]octan-3-yl)-7-(4-cyclopropyl-1H-indol-3-yl)-8-fluoro-2-((tetrahydro-1H-pyrrolizin-7a(5H)-yl)methoxy)quinazoline], which IC50 [1] is on record?
The IC50 was 0.0001 to 10 µM.

And the IC50 [2]?
The IC50 was 0.0001 to 10 µM.
